For series [1], the target named is T1, PI 3-kinase alpha (Homo sapiens, UniProt P42336). Briefly: Kinase Glo Luminescent Kinase Assay (Kglo), assay A. It counts as biochemical. As to conditions: read-out: Assay A PI3Kα IC50. In general terms: In Kinase-Glo more light means more ATP remaining.
The target of series [2] is T2, PI 3-kinase beta (Homo sapiens, UniProt P42338). Briefly: Kinase Glo Luminescent Kinase Assay (Kglo), assay B. It counts as biochemical. Particulars: read-out: Assay B PI3Kβ IC50.
Target sequence in this assay (P42338 whole entry): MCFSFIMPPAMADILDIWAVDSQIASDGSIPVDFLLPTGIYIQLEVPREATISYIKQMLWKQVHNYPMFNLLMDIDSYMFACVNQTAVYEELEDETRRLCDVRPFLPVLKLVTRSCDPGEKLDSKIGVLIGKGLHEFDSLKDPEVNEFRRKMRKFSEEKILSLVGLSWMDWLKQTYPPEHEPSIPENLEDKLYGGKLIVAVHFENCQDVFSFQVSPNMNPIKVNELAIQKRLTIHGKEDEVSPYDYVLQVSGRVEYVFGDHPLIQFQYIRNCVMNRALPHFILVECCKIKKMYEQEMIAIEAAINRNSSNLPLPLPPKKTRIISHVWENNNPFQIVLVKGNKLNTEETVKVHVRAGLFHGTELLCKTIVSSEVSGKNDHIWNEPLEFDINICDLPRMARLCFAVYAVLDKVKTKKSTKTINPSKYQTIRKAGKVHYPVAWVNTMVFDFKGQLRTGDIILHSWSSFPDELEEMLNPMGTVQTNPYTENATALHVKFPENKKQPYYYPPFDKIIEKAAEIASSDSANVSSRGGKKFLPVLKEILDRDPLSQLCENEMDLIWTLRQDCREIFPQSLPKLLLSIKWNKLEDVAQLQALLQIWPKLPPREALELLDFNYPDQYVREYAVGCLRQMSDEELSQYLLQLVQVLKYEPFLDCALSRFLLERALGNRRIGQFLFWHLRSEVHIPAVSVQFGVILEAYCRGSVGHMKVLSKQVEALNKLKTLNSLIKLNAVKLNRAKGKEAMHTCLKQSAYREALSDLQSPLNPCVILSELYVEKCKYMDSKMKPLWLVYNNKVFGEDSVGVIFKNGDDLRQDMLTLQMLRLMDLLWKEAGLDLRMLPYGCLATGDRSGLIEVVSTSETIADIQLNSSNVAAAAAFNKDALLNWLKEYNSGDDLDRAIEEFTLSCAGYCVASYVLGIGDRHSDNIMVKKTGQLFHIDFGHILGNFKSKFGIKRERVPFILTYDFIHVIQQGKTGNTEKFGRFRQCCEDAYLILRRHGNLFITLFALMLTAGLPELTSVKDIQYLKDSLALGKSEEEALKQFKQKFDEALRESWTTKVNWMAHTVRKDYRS
Target sequence in this assay (P27986 461-568 partner): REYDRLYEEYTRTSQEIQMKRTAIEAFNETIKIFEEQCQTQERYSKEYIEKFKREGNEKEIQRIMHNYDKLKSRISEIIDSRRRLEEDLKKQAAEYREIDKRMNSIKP
In another series the target is Vps34 (Homo sapiens, UniProt Q8NEB9). The experiment in a line: Kinase Glo Luminescent Kinase Assay (Kglo), assay C. In kind it is biochemical. Particulars: read-out: Assay C VPS34 IC50.
The next series deals with PI 4-kinase beta (Homo sapiens, UniProt Q9UBF8). The experiment in a line: Kinase Glo Luminescent Kinase Assay (Kglo), assay D. It counts as biochemical. As to conditions: read-out: Assay D PI4Kβ IC50.
The target of another series is PI 3-kinase gamma (Homo sapiens, UniProt P48736). Briefly: TR-FRET Adapta assay, assay E. It counts as biochemical. As to conditions: read-out: Assay E PI3Kγ IC50. In general terms: In TR-FRET formats the signal depends on donor and acceptor labels being close together.
Another series addresses mTOR (Homo sapiens, UniProt P42345). Briefly: Lanthascreen kinase binding assay, assay G. As to conditions: read-out: Assay G mTOR IC50.
For series [3], the target named is T1, PI 3-kinase alpha. Briefly: Cellular assay H1, p-Akt (S473) in Rat-1 cells, Surefire format. As to conditions: non-asterisked data: version H1 (Surefire format), Rat-1 cells; read-out: Assay H PI3Kα IC50. It counts as cell-based.
The target in series [4] is T2, PI 3-kinase beta. The experiment in a line: Cellular assay I1, p-Akt (S473) in Rat-1 cells, Surefire format. In kind it is cell-based. As to conditions: non-asterisked data: version I1 (Surefire format), Rat-1 cells; read-out: Assay I PI3Kβ IC50.
Target sequence in this assay (P42338 whole entry): as the sequence (P42338 whole entry) above
Target sequence in this assay (Q63787 whole entry partner): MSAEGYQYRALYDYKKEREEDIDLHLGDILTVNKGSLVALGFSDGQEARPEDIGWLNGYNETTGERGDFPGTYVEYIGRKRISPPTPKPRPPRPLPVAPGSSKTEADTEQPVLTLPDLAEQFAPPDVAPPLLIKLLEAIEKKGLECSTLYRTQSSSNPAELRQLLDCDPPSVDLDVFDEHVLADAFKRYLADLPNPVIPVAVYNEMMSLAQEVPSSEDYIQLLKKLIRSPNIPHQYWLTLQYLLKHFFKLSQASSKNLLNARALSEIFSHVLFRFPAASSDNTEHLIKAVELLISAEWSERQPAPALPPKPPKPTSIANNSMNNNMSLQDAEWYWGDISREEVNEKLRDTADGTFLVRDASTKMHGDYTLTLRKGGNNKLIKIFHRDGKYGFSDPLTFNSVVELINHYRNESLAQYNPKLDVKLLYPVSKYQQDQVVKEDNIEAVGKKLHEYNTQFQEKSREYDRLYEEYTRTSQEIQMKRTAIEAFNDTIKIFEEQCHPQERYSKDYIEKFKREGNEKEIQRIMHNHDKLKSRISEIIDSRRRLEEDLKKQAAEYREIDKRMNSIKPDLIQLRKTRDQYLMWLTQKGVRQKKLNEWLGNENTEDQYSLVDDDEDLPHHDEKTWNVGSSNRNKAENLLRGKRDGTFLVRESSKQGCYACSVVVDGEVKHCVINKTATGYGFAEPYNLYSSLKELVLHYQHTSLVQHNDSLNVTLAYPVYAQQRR
Series [5] addresses T3, PI 3-kinase delta (Homo sapiens, UniProt O00329). Briefly: Cellular assay J1, p-Akt (S473) in Rat-1 cells, Surefire format. It counts as cell-based. Particulars: non-asterisked data: version J1 (Surefire format), Rat-1 cells; read-out: Assay J PI3Kδ IC50.
Target sequence in this assay (O00329 whole entry): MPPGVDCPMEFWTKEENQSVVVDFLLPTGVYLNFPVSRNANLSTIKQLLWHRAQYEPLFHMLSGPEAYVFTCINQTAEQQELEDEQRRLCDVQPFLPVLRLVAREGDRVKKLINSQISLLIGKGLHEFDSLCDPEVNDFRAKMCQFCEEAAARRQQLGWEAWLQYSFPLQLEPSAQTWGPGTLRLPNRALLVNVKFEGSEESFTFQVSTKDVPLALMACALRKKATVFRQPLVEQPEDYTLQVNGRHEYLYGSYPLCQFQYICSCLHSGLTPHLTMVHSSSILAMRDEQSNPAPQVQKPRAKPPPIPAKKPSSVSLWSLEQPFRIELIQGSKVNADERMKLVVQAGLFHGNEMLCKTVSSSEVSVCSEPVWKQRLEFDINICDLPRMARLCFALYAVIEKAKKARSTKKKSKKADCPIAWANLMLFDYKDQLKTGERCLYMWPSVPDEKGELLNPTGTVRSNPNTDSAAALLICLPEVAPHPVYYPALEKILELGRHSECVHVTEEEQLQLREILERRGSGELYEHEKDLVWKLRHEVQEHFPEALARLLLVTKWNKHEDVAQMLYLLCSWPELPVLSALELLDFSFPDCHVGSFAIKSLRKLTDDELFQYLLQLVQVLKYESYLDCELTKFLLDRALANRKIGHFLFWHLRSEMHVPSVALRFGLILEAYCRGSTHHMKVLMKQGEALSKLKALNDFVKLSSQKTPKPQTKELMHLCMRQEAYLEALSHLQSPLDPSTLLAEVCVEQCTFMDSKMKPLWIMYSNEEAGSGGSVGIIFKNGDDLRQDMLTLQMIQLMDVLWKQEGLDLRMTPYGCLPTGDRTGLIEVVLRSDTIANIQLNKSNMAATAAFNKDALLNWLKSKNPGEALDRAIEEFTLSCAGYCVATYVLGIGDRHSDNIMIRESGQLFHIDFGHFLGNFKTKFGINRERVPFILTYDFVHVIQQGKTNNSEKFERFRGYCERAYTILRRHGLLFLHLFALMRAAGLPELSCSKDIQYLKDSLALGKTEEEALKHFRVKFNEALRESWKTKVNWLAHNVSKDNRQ
Target sequence in this assay (Q63787 whole entry partner): as the sequence (Q63787 whole entry partner) above
Series [6] concerns IL-8-induced neutrophil shape change in human whole blood. The experiment in a line: Whole blood neutrophil shape change assay (L). It counts as cell-based. As to conditions: IL-8, human whole blood, read-out: Assay L WBSC IC50.
Series [7] deals with T3, PI 3-kinase delta. The experiment in a line: TR-FRET Adapta assay, assay F.
Target sequence in this assay (O00329 whole entry): as the sequence (O00329 whole entry) above
Target sequence in this assay (P27986 461-568 partner): as the sequence (P27986 461-568 partner) above
Series [8] in a line: Microsomal clearance assay (M). As to conditions: intrinsic clearance in rat liver microsomes. (Liver microsomes are a subcellular fraction often used to study metabolism.)
Experimental: The experiments were performed in 96-well glass plates at 37° C. on an automated Tecan EVO platform. Test compounds at a concentration of 10 mM in pure DMSO were diluted 1:1000 in water to 10 μM. […] Reactions were initiated by the addition of 150 μL of a cofactor solution containing 2 mM NADPH.

Counter-ions that a name gives are not always drawn. Like-named read-outs stand apart in the source and are kept apart here.

Chain of PI 3-kinase gamma (P48736 whole entry): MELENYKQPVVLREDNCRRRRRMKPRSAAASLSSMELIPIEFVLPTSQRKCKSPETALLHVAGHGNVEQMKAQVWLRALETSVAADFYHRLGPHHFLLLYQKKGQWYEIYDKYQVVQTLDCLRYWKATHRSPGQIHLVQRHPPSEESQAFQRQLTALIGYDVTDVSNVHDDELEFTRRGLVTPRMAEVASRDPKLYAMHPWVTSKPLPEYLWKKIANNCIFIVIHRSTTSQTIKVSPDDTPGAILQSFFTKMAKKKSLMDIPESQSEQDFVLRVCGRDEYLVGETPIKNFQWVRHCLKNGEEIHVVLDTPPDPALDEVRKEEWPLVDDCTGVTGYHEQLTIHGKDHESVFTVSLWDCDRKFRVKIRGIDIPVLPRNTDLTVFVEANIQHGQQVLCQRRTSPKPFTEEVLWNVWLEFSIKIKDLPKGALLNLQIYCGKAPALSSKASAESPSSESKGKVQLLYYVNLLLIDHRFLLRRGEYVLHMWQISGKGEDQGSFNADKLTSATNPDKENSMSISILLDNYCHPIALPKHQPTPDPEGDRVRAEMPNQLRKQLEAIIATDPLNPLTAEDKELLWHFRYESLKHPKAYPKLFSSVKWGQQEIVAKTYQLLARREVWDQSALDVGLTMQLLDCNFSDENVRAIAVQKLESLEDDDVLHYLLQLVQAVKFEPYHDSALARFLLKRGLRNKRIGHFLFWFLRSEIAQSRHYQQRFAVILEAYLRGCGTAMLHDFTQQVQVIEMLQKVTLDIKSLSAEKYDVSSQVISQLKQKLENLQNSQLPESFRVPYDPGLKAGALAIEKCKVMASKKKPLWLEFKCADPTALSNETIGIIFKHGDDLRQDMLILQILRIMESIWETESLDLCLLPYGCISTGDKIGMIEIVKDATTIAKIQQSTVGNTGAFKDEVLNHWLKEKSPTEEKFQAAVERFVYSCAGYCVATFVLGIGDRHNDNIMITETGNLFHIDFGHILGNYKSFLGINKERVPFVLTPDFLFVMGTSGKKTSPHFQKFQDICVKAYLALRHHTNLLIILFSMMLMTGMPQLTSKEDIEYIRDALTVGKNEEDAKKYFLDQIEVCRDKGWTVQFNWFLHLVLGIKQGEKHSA
Chain of PI 4-kinase beta (Q9UBF8 whole entry): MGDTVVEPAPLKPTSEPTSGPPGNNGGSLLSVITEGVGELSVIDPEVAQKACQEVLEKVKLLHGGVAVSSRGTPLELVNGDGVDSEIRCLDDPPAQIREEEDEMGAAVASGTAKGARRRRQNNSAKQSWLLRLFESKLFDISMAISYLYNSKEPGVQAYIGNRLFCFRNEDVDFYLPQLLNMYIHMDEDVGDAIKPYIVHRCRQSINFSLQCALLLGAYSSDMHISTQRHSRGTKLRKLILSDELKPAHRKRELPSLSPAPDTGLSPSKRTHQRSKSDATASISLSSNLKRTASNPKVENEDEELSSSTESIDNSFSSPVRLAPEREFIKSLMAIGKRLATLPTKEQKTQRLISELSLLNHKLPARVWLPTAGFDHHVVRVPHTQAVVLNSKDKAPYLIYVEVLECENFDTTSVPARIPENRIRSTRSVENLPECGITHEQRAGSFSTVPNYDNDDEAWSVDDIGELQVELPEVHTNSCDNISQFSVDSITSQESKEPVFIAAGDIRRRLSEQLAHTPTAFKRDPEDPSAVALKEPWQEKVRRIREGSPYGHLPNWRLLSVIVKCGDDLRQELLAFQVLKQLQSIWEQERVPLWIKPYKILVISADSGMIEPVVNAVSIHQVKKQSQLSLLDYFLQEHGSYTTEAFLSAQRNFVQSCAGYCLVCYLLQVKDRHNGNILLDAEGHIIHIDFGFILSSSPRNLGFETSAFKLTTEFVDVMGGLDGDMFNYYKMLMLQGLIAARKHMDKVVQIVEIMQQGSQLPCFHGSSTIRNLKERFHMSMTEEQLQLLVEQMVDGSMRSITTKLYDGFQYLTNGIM
Experimental for mTOR: Lanthascreen™ Kinase Binding Assay for mTOR (G)
Binding of an inhibitor to the kinase competes for binding with the tracer, resulting in a loss of FRET.
50 nL of compound dilutions were dispensed onto white 384-well small volume polystyrene plate.

In general, IC50 refers to the concentration that inhibits the measured activity by half. On to `Cc1ccc(S(=O)(=O)N2CCCC(F)(F)C2)cc1-c1cnc(N)c(-n2cncn2)n1` [Example 127.1], for which the IC50 at PI 3-kinase alpha [1] was 290 nM; on PI 3-kinase beta [2], 1200 nM; on Vps34 it was more than 10000 nM; on PI 4-kinase beta, 1500 nM; on PI 3-kinase gamma, 11 nM; at mTOR it was 1100 nM. The IC50 was 1570 nM at PI 3-kinase alpha [3]; more than 10000 nM at PI 3-kinase beta [4]; 1140 nM at PI 3-kinase delta [5]; 2470 nM in [6] (Homo sapiens, Neutrophil); 0.56 µM at PI 3-kinase delta [7] (read-out: Assay F PI3Kδ IC50). Further, the “Assay M RLM CI(int)” value in series [8] is 907 µL/min/mg.

Consider `Cc1ccc(S(=O)(=O)NC2CC3(CC(O)C3)C2)cc1-c1cnc(N)c(-n2cncn2)n1` (single isomer, unassigned) [Example 70b, (S)-3-(5-Amino-6-(1H-1,2,4-triazol-1-yl)pyrazin-2-yl)-N-(6-hydroxyspiro[3.3]heptan-2-yl)-4-methylbenzenesulfonamide or (R)-3-(5-Amino-6-(1H-1,2,4-triazol-1-yl)pyrazin-2-yl)-N-(6-hydroxyspiro[3.3]heptan-2-yl)-4-methylbenzenesulfonamide], for which the IC50 was 840 nM on PI 3-kinase alpha [1]; 2500 nM on PI 3-kinase beta [2]; more than 10000 nM at Vps34; more than 10000 nM on PI 4-kinase beta; 4 nM on PI 3-kinase gamma; 5900 nM at mTOR. Also, the IC50 was 4060 nM at PI 3-kinase alpha [3]; more than 10000 nM on PI 3-kinase beta [4]; 3980 nM at PI 3-kinase delta [5]; 687 nM in [6]; 1.1 µM on PI 3-kinase delta [7] (Assay F PI3Kδ IC50 (μM)). Also, the “Assay M RLM CI(int)” value in series [8] was 57 µL/min/mg.

In the case of `Cc1ccc(S(=O)(=O)NC[C@@H]2CCNC2)cc1-c1cnc(N)c(-n2cncn2)n1` [Example 127.57, (R)-3-(5-amino-6-(1H-1,2,4-triazol-1-yl)pyrazin-2-yl)-4-methyl-N-(pyrrolidin-3-ylmethyl)benzenesulfonamide trifluoroacetic acid salt], the IC50 is 1400 nM on PI 3-kinase alpha [1]; 730 nM on PI 3-kinase beta [2]; more than 10000 nM on Vps34; 5900 nM on PI 4-kinase beta; 50 nM at PI 3-kinase gamma; 5000 nM on mTOR. For the same compound, the IC50 at PI 3-kinase alpha [3] is more than 10000 nM; at PI 3-kinase beta [4], more than 10000 nM; at PI 3-kinase delta [5], more than 10000 nM; in series [6] (Homo sapiens, Neutrophil), 13800 nM; on PI 3-kinase delta [7] (read-out: Assay F PI3Kδ IC50), 0.76 µM. Besides, the “Assay M RLM CI(int)” value in series [8] came out at 21 µL/min/mg.

On to `Cc1ccc(S(=O)(=O)NCCC(C)(C)O)cc1-c1cnc(N)c(-c2nc(C3CC3)no2)n1` [Example 143, 3-(5-Amino-6-(3-cyclopropyl-1,2,4-oxadiazol-5-yl)pyrazin-2-yl)-N-(3-hydroxy-3-methylbutyl)-4-methylbenzenesulfonamide], for which the IC50 on Vps34 was more than 9100 nM; on PI 4-kinase beta, more than 9100 nM; at mTOR it was 2190 nM; on PI 3-kinase alpha [3], 2350 nM; on PI 3-kinase beta [4] it was 6030 nM; at PI 3-kinase delta [5] it was 1010 nM. Further, the IC50 in series [6] (Homo sapiens, Neutrophil) is 1700 nM. The “Assay M RLM CI(int)” value in [8] was found to be 134 µL/min/mg.

Consider `Cc1ccc(S(=O)(=O)N[C@H]2C[C@H](O)C2)cc1-c1cnc(N)c(-n2cncn2)n1` [Example 71a, 3-(5-Amino-6-(1H-1,2,4-triazol-1-yl)pyrazin-2-yl)-N-((1r,3r)-3-hydroxycyclobutyl)-4-methylbenzenesulfonamide], for which the IC50 on PI 3-kinase alpha [1] was 330 nM; at PI 3-kinase beta [2], 1100 nM; on Vps34, more than 10000 nM; on PI 4-kinase beta it was 2800 nM; on PI 3-kinase gamma it was 13 nM; at mTOR it was more than 10000 nM. The IC50 was found to be 3060 nM on PI 3-kinase alpha [3]; 8020 nM at PI 3-kinase beta [4]; 3650 nM on PI 3-kinase delta [5]; 763 nM in series [6]; 1 µM at PI 3-kinase delta [7] (read-out: Assay F PI3Kδ IC50). The “Assay M RLM CI(int)” value in series [8] amounted to 18 µL/min/mg.

For the compound `Cc1ccc(S(=O)(=O)NCC(C)(C)O)cc1-c1cnc(N)c(-n2cnc(C3CC3)n2)n1` [Example 109, 3-(5-Amino-6-(3-cyclopropyl-1H-1,2,4-triazol-1-yl)pyrazin-2-yl)-N-(2-hydroxy-2-methylpropyl)-4-methyl benzenesulfonamide], the IC50 on PI 3-kinase alpha [1] is 440 nM; on PI 3-kinase beta [2], 3000 nM; at Vps34, more than 10000 nM; on PI 4-kinase beta, 8600 nM; at PI 3-kinase gamma, 28 nM; on PI 3-kinase alpha [3], 2610 nM. In addition, the IC50 on PI 3-kinase beta [4] is more than 10000 nM; at PI 3-kinase delta [5] it was 1900 nM; in series [6] (Homo sapiens, Neutrophil), 935 nM; on PI 3-kinase delta [7] (read-out: Assay F PI3Kδ IC50), 0.69 µM. In addition, in series [8], the “Assay M RLM CI(int)” value is less than 3.4 µL/min/mg.

Consider `Cc1noc(-c2nc(-c3cc(S(=O)(=O)NCC(C)(C)CO)ccc3C)cnc2N)n1` [Example 92, 3-(5-Amino-6-(3-methyl-1,2,4-oxadiazol-5-yl)pyrazin-2-yl)-N-(3-hydroxy-2,2-dimethylpropyl)-4-methylbenzenesulfonamide], for which the IC50 at PI 3-kinase alpha [1] was 1400 nM; at PI 3-kinase beta [2], 8200 nM; on Vps34 it was more than 9100 nM; at PI 4-kinase beta, more than 9100 nM; at PI 3-kinase gamma it was 73 nM; on mTOR, more than 9100 nM. The IC50 in series [6] (Homo sapiens, Neutrophil) amounted to 1160 nM; on PI 3-kinase delta [7] (read-out: Assay F PI3Kδ IC50), 0.69 µM. Besides, the “Assay M RLM CI(int)” value in series [8] was 64 µL/min/mg.

With `Cc1nc(C)n(-c2nc(-c3cc(S(=O)(=O)NCC(C)(C)O)ccc3C)cnc2N)n1` [Example 49, 3-(5-Amino-6-(3,5-dimethyl-1H-1,2,4-triazol-1-yl)pyrazin-2-yl)-N-(2-hydroxy-2-methylpropyl)-4-methylbenzenesulfonamide], the IC50 on PI 3-kinase alpha [1] was 620 nM; at PI 3-kinase beta [2] it was 5300 nM; at Vps34, more than 10000 nM; on PI 4-kinase beta, more than 10000 nM; on PI 3-kinase gamma, 49 nM; at mTOR, more than 10000 nM. The IC50 in series [6] (Homo sapiens, Neutrophil) worked out at 856 nM; on PI 3-kinase delta [7] (read-out: Assay F PI3Kδ IC50), 1.7 µM. Also, the “Assay M RLM CI(int)” value in series [8] worked out at 20 µL/min/mg.

Take `Cc1ccc(S(=O)(=O)NC2CC3(CC(O)C3)C2)cc1-c1cnc(N)c(-c2cn(C)nc2C)n1` (single isomer, unassigned) [Example 9b, (R)-3-[5-Amino-6-(1,3-dimethyl-1H-pyrazol-4-yl)-pyrazin-2-yl]-N-(6-hydroxy-spiro[3.3]hept-2-yl)-4-methyl-benzenesulfonamide or (S)-3-[5-Amino-6-(1,3-dimethyl-1H-pyrazol-4-yl)-pyrazin-2-yl]-N-(6-hydroxy-spiro[3.3]hept-2-yl)-4-methyl-benzenesulfonamide]: the IC50 on PI 3-kinase beta [2] is 1200 nM; on Vps34, more than 10000 nM; on PI 3-kinase gamma, 12 nM; on mTOR, more than 10000 nM; at PI 3-kinase beta [4], more than 10000 nM; on PI 3-kinase delta [5] it was 7640 nM. Also, the values for the IC50 (in [6]; at PI 3-kinase delta [7] (read-out: Assay F PI3Kδ IC50)) were 335 nM and 0.24 µM, respectively. The “Assay M RLM CI(int)” value in series [8] stood at 27 µL/min/mg.

As for `Cc1ccc(S(=O)(=O)NC[C@H]2C[C@@H](O)C2)cc1-c1cnc(N)c(-c2nc(C3CC3)no2)n1` [Example 94, 3-(5-Amino-6-(3-cyclopropyl-1,2,4-oxadiazol-5-yl)pyrazin-2-yl)-N-(((1s,3s)-3-hydroxycyclobutyl)methyl)-4-methylbenzenesulfonamide], the IC50 at PI 3-kinase alpha [1] was 1700 nM; at PI 3-kinase beta [2], more than 9100 nM; at Vps34, more than 9100 nM; at PI 4-kinase beta it was more than 9100 nM; on PI 3-kinase gamma, 14 nM; at mTOR, 8900 nM. For the same compound, the IC50 was 2980 nM on PI 3-kinase alpha [3]; 8960 nM on PI 3-kinase beta [4]; 2090 nM on PI 3-kinase delta [5]; 3780 nM in series [6] (Homo sapiens, Neutrophil); 0.57 µM on PI 3-kinase delta [7] (read-out: Assay F PI3Kδ IC50).

As to `Cc1cc(-c2nc(-c3cc(S(=O)(=O)NC4CC(F)(F)C4)ccc3C)cnc2N)ccn1` [Example 129.2, 3-(5-amino-6-(2-methylpyridin-4-yl)pyrazin-2-yl)-N-(3,3-difluorocyclobutyl)-4-methylbenzenesulfonamide], the IC50 is 280 nM on PI 3-kinase alpha [1]; 4300 nM at PI 3-kinase beta [2]; more than 9100 nM on Vps34; 7000 nM on PI 4-kinase beta; 22 nM on PI 3-kinase gamma; 6100 nM on mTOR. Also, the concentration for half-maximal inhibition (IC50) in [6] (Homo sapiens, Neutrophil) turned out to be 2420 nM; on PI 3-kinase delta [7] (read-out: Assay F PI3Kδ IC50), 1.2 µM. Besides, the “Assay M RLM CI(int)” value in series [8] was 130 µL/min/mg.

Take `Cc1ccc(S(=O)(=O)N[C@H]2CC[C@H](O)CC2)cc1-c1cnc(N)c(-c2cncnc2)n1` [Example 59, Trans-3-(5-Amino-6-(pyrimidin-5-yl)pyrazin-2-yl)-N-(-4-hydroxycyclohexyl)-4-methylbenzenesulfonamide]: the IC50 on PI 3-kinase alpha [1] was 910 nM; at PI 3-kinase beta [2], 5290 nM; at Vps34, more than 9100 nM; on PI 4-kinase beta, more than 9100 nM; at PI 3-kinase gamma, 105 nM; on mTOR, 6020 nM. The IC50 on PI 3-kinase alpha [3] was determined as 8470 nM; on PI 3-kinase delta [5], 6420 nM; in series [6] (Homo sapiens, Neutrophil), 801 nM; on PI 3-kinase delta [7] (read-out: Assay F PI3Kδ IC50), 0.41 µM.

These data come from patent US10004732B2 (Novartis AG, priority 2014, dated 2018).
